Measurements: patent US20140018435A1, “Transdermal Delivery of Therapeutic Agents Using Poly (Amidoamine) Dendrimers” (UNIVERSITY OF ILLINOIS CHICAGO, priority 2012, published 2014)
Read-outs that look alike come from different tables or passages of the source. Values belong to the compound of their own block, whether it stands above or below them.

Experiments:
[1] = tested on: ER positive invasive breast cancer; settings: gel, 0.5 or 1 mg per breast per day; cited from earlier work
[2] = tested on: breast cancer cell growth; settings: tissue culture; cited from earlier work
[3] = gel, cited from earlier work
[4] = 24 hours dendrimer pre-treatment, then 5-FU in isopropyl myristate for 48 hrs; cited from earlier work
[5] = after 24 hours of co-treatment; cited from earlier work
[6] = at pH 74; cited from earlier work
[7] = Franz diffusion cell skin permeation/retention, porcine skin; assay type: in vitro ADME; settings: detection limit 9 ng/mL
[8] = taken orally for five years; cited from earlier work

Compound: 4-hydroxytamoxifen [4-OHT]
- reduction of Ki-67 labeling [1]: reduced the Ki-67 labeling to a similar degree as oral TAM
- potency in suppressing breast cancer cell growth relative to TAM [2]: two-log greater potency
- plasma level as fraction of those seen after 20 mg of oral TAM ([3]; 0.5 mg per breast per day): approximately 1/30
- plasma levels of 4-OHT ([3]; 0.5 mg per breast per day): 0.05 ng/mL
- plasma level as fraction of those seen after 20 mg of oral TAM ([3]; 1 mg per breast per day): 1/12
- plasma levels of 4-OHT ([3]; 1 mg per breast per day): 0.13 ng/mL

Compound: O=c1[nH]cc(F)c(=O)[nH]1 [5-FU, 5-fluorouracil]
- fold enhancement in permeability coefficient [4]: Up to 4 fold

Compound: O=C(O)c1cc(-c2ccc(F)cc2F)ccc1O [Diflunisal]
- increase of accumulative permeated amount by complexing with PAMAM dendrimers, as compared to the free drug [5]: 3.2 times

Compound: CC(C(=O)O)c1cccc(C(=O)c2ccccc2)c1 (stereo not drawn) [Ketoprofen]
- increase of accumulative permeated amount by complexing with PAMAM dendrimers, as compared to the free drug [5]: 3.4 times

Compound: CCCCCCCC/C=C\CCCCCCCC(=O)O [OA, oleic acid]
- reported partition coefficient [6]: 7.3

- endoxifen collected from the receiver solution (RP-HPLC) [7]: < 9 ng/mL
Compound: CC/C(=C(\c1ccc(O)cc1)c1ccc(OCCNC)cc1)c1ccccc1 [endoxifen]

Compound: CC/C(=C(\c1ccccc1)c1ccc(OCCN(C)C)cc1)c1ccccc1 [tamoxifen]
- reduction of breast cancer risk [8]: about 50%
